According to EP4741392A1, “1H-PYRAZOLO[4,3-C]PYRIDINE COMPOUND, AND COMPOSITION THEREOF AND USE THEREOF” (Shenzhen TargetRx Co., Ltd., priority 2023, dated 2025):
Like-named read-outs stand apart in the source and are kept apart here.

Key:
Format in all cases: cell-based
[1] = test system: Ramos cells with BTK WT; test: Phosphor-BTK(Y223) assay, suspended cells; conditions: phosphorylated BTK Y223, Ramos cells with BTK WT
Procedure: (§1) The purpose of this assay was to simply, quickly and directly detect the level of endogenous BTK phosphorylation in cells.
The steps for handling suspended cells were as follows: • 1) Ramos cells with BTK WT (2.5 k/well), BTK C481S (2.5 k/well), or BTK T474I (2.5 k/well) were plated in a 96-well plate, respectively. A compound of different concentration gradients was added using Tecan D300e, and the plate was incubated at 37 °C and 5% CO2 for 2 hours. • 2) 8.33 µL of 20 mM Na3VO4 was added to bring the final concentration to 5 mM, and the plate was incubated at 37 °C and 5% CO2 for 3 h. • 3) During the incubation, the following reagents were prepared: • 4x added lysis buffer: 24 vol 4x lysis buffer + 1 vol 25x blocking reagent. • p-BTK (Y223) cryptate-antibody and p-BTK (Y223) d2-antibody working solutions: 1 volume of each cryopreserved antibody (stored at - 20 °C) was added to 38 times the volume of assay buffer (stored at 4 °C), and mixed well. • 4) After the incubation was completed, 11.1 µL of 4x added lysis buffer was directly added. The plate was shaken at 800 rpm at room temperature for 30 min. • 5) The lysate was mixed well and 16 µL of it was transferred to a 384-well plate. 1 × added lysis buffer was used as a blank control. • 6) 4 µL of pre-mixed working solutions of the two antibodies (cryptate Ab:d2 Ab = 1:1) was added, and the plate was sealed. • 7) The plate was incubated at room temperature overnight. • 8) The plate was read at 665nm and 620nm using Biotek cytation3.0 microplate reader, and the ratio of 665/620nm of each well was calculated. Data analysis: IC50 was calculated using GraphPad Prism 7.0 software.
(§2) The IC50 (half-maximal phosphorylation inhibitory concentration) of the phosphorylated BTK Y223 of the compound was obtained using the following nonlinear fitting formula: Y = Bottom + (Top−Bottom)/(1+10^(∧)((LogIC50−X)*HillSlope)) [formula] • X: Log value of the compound concentration • Y: Inhibition rate (% inhibition) • Top: Maximum response • Bottom: Baseline response • HillSlope: Slope of the curve
(§3) The formula for calculating cell phosphorylation inhibition rate (inhibition rate %) was: Inhibition rate% = 1−(eachconcentrationwell-blankwell)/(positivecontrolwell−blankwell) [formula]

[2] = test system: NIH/3T3 BTK C481S cells; test: Phosphor-BTK(Y223) assay, adherent cells; conditions: read-out: NIH/3T3 BTK-C481S pBTK
Procedure: as §1
(§4) The steps for handling adherent cells were as follows: • 1) NIH/3T3 BTK WT cells (7.5 k/well) and NIH/3T3 BTK C481S cells (10 k/well) were plated in a 96-well plate, respectively, and cultured at 37 °C and 5% CO2 overnight. • 2) A 3-fold final concentration gradient dilution of a compound was prepared, and 50 µL of it was taken and added to 100 µL of cell culture. 0.5% DMSO was used as a positive control for cell growth. • 3) The plate was incubated at 37 °C and 5% CO2 for 0.5 h. • 4) Na3VO4 at a final concentration of 1mM was added, and the plate was incubated at 37 °C and 5% CO2 for 2 hours. • 5) During the incubation, the following reagents were prepared: • 1x added lysis buffer: 3 vol ddH2O + 1 vol 4x lysis buffer + 100x blocking reagent. • p-BTK (Y223) cryptate-antibody and p-BTK (Y223) d2-antibody working solutions: 1 volume of each cryopreserved antibody (stored at - 20 °C) was added to 19 times the volume of assay buffer (stored at 4 °C). • 6) After the incubation was completed, the medium was removed and 50 µL of 1x added lysis buffer was added. The plate was centrifuged at 500 rpm at room temperature for 30 min. • 7) The lysate was mixed well and 16 µL of it was transferred to a 384-well plate. 1 × added lysis buffer was used as a blank control. • 8) 4 µL of pre-mixed working solutions of the two antibodies (cryptate Ab:d2 Ab = 1:1) was added, and the plate was sealed. • 9) The plate was incubated at room temperature overnight. 10) The plate was read at 665nm and 620nm using Biotek cytation3.0 microplate reader, and the ratio of 665/620nm of each well was calculated.
as §2, §3

[3] = test system: NIH/3T3 BTK WT cells; test: Phosphor-BTK(Y223) assay, adherent cells; conditions: read-out: NIH/3T3 BTK-WT pBTK
Procedure: as §1, §4, §2, §3

[4] = Mus musculus, NIH3T3, phosphorylated BTK Y223, NIH/3T3 BTK C481S cells
[5] = Mus musculus, NIH3T3, phosphorylated BTK Y223, NIH/3T3 BTK WT cells

SMILES | IC50 ([1]; Homo sapiens, Ramos) | IC50 [2, 4] | IC50 [3, 5] | IC50 [1] | IC50 ([2]; phosphorylated BTK Y223, NIH/3T3 BTK C481S cells) | IC50 ([3]; phosphorylated BTK Y223, NIH/3T3 BTK WT cells)
COc1ccc(F)cc1C(=O)NCc1ccc(-c2ncc(-c3ccc(P(C)(C)=O)cn3)c3[nH]nc(N)c23)cc1 [Example 56, N-(4-(3-amino-7-(5-(dimethylphosphoryl)pyridin-2-yl)-1H-pyrazolo[4,3-c]pyridin-4-yl)benzyl)-5-fluoro-2-methoxybenzamide] | ≤ 5 nM | > 50 nM | > 50 nM | – | – | –
COc1ccc(F)cc1C(=O)NCc1ccc(-c2ncc(-c3ccc(F)cn3)c3[nH]nc(N)c23)c(F)c1 [Example 82, N-(4-(3-amino-7-(5-fluoropyridin-2-yl)-1H-pyrazolo[4,3-c]pyridin-4-yl)-3-fluorobenzyl)-5-fluoro-2-methoxybenzamide] | 10 to 50 nM | ≤ 5 nM | ≤ 5 nM | – | – | –
COc1ccc(F)cc1C(=O)NCc1ccc(-c2nc(C(C)C(F)(F)F)cc3[nH]nc(N)c23)cc1 (single isomer, unassigned) [Example 3, N-(4-(3-amino-6-(1,1,1-trifluoropropan-2-yl)-1H-pyrazolo[4,3-c]pyridin-4-yl)benzyl)-5-fluoro-2-methoxybenzamide] | – | – | – | 5 to 10 nM | 5 to 10 nM | ≤ 5 nM
COc1ccc(F)cc1C(=O)NCc1ccc(-c2nc([C@H]3CC[C@H](CO)CC3)cc3[nH]nc(N)c23)cc1 [Example 117, N-(4-(3-amino-6-((1r,4r)-4-(hydroxymethyl)cyclohexyl)-1H-pyrazolo[4,3-c]pyridin-4-yl)benzyl)-5-fluoro-2-methoxybenzamide] | ≤ 5 nM | 10 to 50 nM | 10 to 50 nM | – | – | –
COc1ccc(F)cc1C(=O)NCc1ccc(-c2ncc(-c3ccc(CN4CCCCC4)cn3)c3[nH]nc(N)c23)cc1 [Example 66, N-(4-(3-amino-7-(5-(piperidin-1-ylmethyl)pyridin-2-yl)-1H-pyrazolo[4,3-c]pyridin-4-yl)benzyl)-5-fluoro-2-methoxybenzamide] | 5 to 10 nM | ≤ 5 nM | ≤ 5 nM | – | – | –
COc1ccc(F)cc1C(=O)NCc1ccc(-c2ncc(-c3ccc(C(C)(C)O)cn3)c3[nH]nc(N)c23)cc1 [Example 65, N-(4-(3-amino-7-(5-(2-hydroxypropan-2-yl)pyridin-2-yl)-1H-pyrazolo[4,3-c]pyridin-4-yl)benzyl)-5-fluoro-2-methoxybenzamide] | ≤ 5 nM | 5 to 10 nM | ≤ 5 nM | – | – | –
COc1ccc(F)cc1C(=O)NCc1ccc(-c2ncc(-c3ccc(C(=O)N4CCOCC4)cn3)c3[nH]nc(N)c23)cc1 [Example 52, N-(4-(3-amino-7-(5-(morpholine-4-carbonyl)pyridin-2-yl)-1H-pyrazolo[4,3-c]pyridin-4-yl)benzyl)-5-fluoro-2-methoxybenzamide] | ≤ 5 nM | ≤ 5 nM | ≤ 5 nM | – | – | –
COc1ccc(F)cc1C(=O)NCc1ccc(-c2ncc(-c3ncc(F)cn3)c3[nH]nc(N)c23)cc1 [Example 36, N-(4-(3-amino-7-(5-fluoropyrimidin-2-yl)-1H-pyrazolo[4,3-c]pyridin-4-yl)benzyl)-5-fluoro-2-methoxybenzamide] | 10 to 50 nM | 5 to 10 nM | 5 to 10 nM | – | – | –
COc1ccc(F)cc1C(=O)NCc1ccc(-c2ncc(-c3ccc(N4CCN(C)C[C@@H]4C)cn3)c3[nH]nc(N)c23)cc1 [Example 74, (S)-N-(-4-(3-amino-7-(5-(2,4-dimethylpiperazin-1-yl)pyridin-2-yl) 1H-pyrazolo[4,3-c]pyridin-4-yl)benzyl)-5-fluoro-2-methoxybenzamide] | ≤ 5 nM | ≤ 5 nM | ≤ 5 nM | – | – | –
CCOC(=O)c1cnc2cc(-c3cnc(-c4ccc(CNC(=O)c5cc(F)ccc5OC)cc4)c4c(N)n[nH]c34)nn2c1 [Example 45, ethyl 2-(3-amino-4-(4-((5-fluoro-2-methoxybenzoylamino)methyl)phenyl)-1H-pyrazolo[4,3-c]pyridin-7-yl)pyrazolo[1,5-a]pyrimidine-6-carboxylate] | > 50 nM | 10 to 50 nM | 10 to 50 nM | – | – | –
COc1ccc(F)cc1C(=O)NCc1ccc(-c2ncc(-c3ccc(OC(F)(F)F)cn3)c3[nH]nc(N)c23)cc1 [Example 41, N-(4-(3-amino-7-(5-(trifluoromethoxy)pyridin-2-yl)-1H-pyrazolo[4,3-c]pyridin-4-yl)benzyl)-5-fluoro-2-methoxybenzamide] | ≤ 5 nM | 5 to 10 nM | ≤ 5 nM | – | – | –
CCN1CCn2nc(-c3cnc(-c4ccc(CNC(=O)c5cc(F)ccc5OC)cc4)c4c(N)n[nH]c34)cc2C1 [Example 72, N-(4-(3-amino-7-(5-ethyl-4,5,6,7-tetrahydropyrazolo[1,5-a]pyrazin-2-yl)-1H-pyrazolo[4,3-c]pyridin-4-yl)benzyl)-5-fluoro-2-methoxybenzamide] | ≤ 5 nM | ≤ 5 nM | ≤ 5 nM | – | – | –
COc1ccc(F)cc1C(=O)NCc1ccc(-c2ncc(-c3cc4ccccn4n3)c3[nH]nc(N)c23)cc1 [Example 69, N-(4-(3-amino-7-(pyrazolo[1,5-a]pyridin-2-yl)-1H-pyrazolo[4,3-c]pyridin-4-yl)benzyl)-5-fluoro-2-methoxybenzamide] | ≤ 5 nM | ≤ 5 nM | ≤ 5 nM | – | – | –
COc1ccc(F)cc1C(=O)NCc1ccc(-c2ncc(-c3cnn(C)c3)c3[nH]nc(N)c23)cc1 [Example 22, N-(4-(3-amino-7-(1-methyl-1H-pyrazol-4-yl)-1H-pyrazolo[4,3-c]pyridin-4-yl)benzyl)-5-fluoro-2-oxybenzamide] | 10 to 50 nM | > 50 nM | > 50 nM | – | – | –
COc1ccc(F)cc1C(=O)NCc1ccc(-c2ncc(-c3cc4cnccn4n3)c3[nH]nc(N)c23)cc1 [Example 78, N-(4-(3-amino-7-(pyrazolo[1,5-a]pyrazin-2-yl)-1H-pyrazolo[4,3-c]pyridin-4-yl)benzyl)-5-fluoro-2-methoxybenzamide] | ≤ 5 nM | ≤ 5 nM | ≤ 5 nM | – | – | –
COc1ccc(F)cc1C(=O)NCc1ccc(-c2ncc(-c3cn(C)cn3)c3[nH]nc(N)c23)cc1 [Example 30, N-(4-(3-amino-7-(1-methyl-1H-imidazol-4-yl)-1H-pyrazolo[4,3-c]pyridin-4-yl)benzyl)-5-fluoro-2-methoxybenzamide] | 10 to 50 nM | 5 to 10 nM | ≤ 5 nM | – | – | –
COc1ccc(F)cc1C(=O)NCc1ccc(-c2ncc(-c3ccc(C4COC4)cn3)c3[nH]nc(N)c23)cc1 [Example 43, N-(4-(3-amino-7-(5-(oxetan-3-yl)pyridin-2-yl)-1H-pyrazolo[4,3-c]pyridin-4-yl)benzyl)-5-fluoro-2-methoxybenzamide] | ≤ 5 nM | ≤ 5 nM | ≤ 5 nM | – | – | –
COc1ccc(F)cc1C(=O)NCc1ccc(-c2nc(C(C)C(F)(F)F)cc3[nH]nc(N)c23)cc1 (centres unmarked) [Example 1, N-(4-(3-amino-6-(1,1,1-trifluoropropan-2-yl)-1H-pyrazolo[4,3-c]pyridin-4-yl)benzyl)-5-fluoro-2-methoxybenzamide] | – | 10 to 50 nM | 10 to 50 nM | – | – | –
